From ChEMBL document CHEMBL2074384, “Reduced folate derivatives are endogenous substrates for cMOAT in rats” (Am J Physiol, 1998)
Values belong to the molecule of their own block, whether it stands above or below them.

Experiments:
[1] = target: T1, ATP-binding cassette sub-family C member 2 (Rattus norvegicus, UniProt Q63120); experiment: TP_TRANSPORTER: inhibition of 5-methyltetrahydrofolate uptake in bile canalicular membrane vesicles from SD rat; assay type: functional, cell membranes, Sprague-Dawley, Bile canalicular membrane vesicle
[2] = target: T1, ATP-binding cassette sub-family C member 2; experiment: TP_TRANSPORTER: inhibition of DNP-SG uptake in bile canalicular membrane vesicles from SD rat; assay type: functional, cell membranes, Sprague-Dawley, Bile canalicular membrane vesicle
[3] = substrate: CN1c2c(nc(N)[nH]c2=O)NC[C@@H]1CNc1ccc(C(=O)N[C@@H](CCC(=O)O)C(=O)O)cc1; experiment: cells, lysate or membranes named

Molecule: N[C@@H](CCC(=O)N[C@H](CSc1ccc([N+](=O)[O-])cc1[N+](=O)[O-])C(=O)NCC(=O)O)C(=O)O
Ki [1]: 34.5 µM

Ki [2]: 269 µM
Molecule: Nc1nc2c(c(=O)[nH]1)N1CN(c3ccc(C(=O)N[C@@H](CCC(=O)O)C(=O)O)cc3)CC1CN2 (stereo not given in full) [FOLITIXORIN]

Ki [2]: 121 µM
Molecule: CN1c2c(nc(N)[nH]c2=O)NC[C@@H]1CNc1ccc(C(=O)N[C@@H](CCC(=O)O)C(=O)O)cc1 [LEVOMEFOLIC ACID]

Ki [2]: 358 µM
Molecule: Nc1nc2c(c(=O)[nH]1)NC(CNc1ccc(C(=O)N[C@@H](CCC(=O)O)C(=O)O)cc1)CN2 (stereo not given in full) [TETRAHYDROFOLATE]

B1: ATP-binding cassette sub-family C member 2 (Rattus norvegicus) (protein)
chain: MDKFCNSTFWDLSLLESPEADLPLCFEQTVLVWIPLGFLWLLAPWQLYSVYRSRTKRSSITKFYLAKQVFVVFLLILAAIDLSLALTEDTGQATVPPVRYTNPILYLCTWLLVLAVQHSRQWCVRKNSWFLSLFWILSVLCGVFQFQTLIRALLKDSKSNMAYSYLFFVSYGFQIVLLILTAFSGPSDSTQTPSVTASFLSSITFSWYDRTVLKGYKHPLTLEDVWDIDEGFKTRSVTSKFEAAMTKDLQKARQAFQRRLQKSQRKPEATLHGLNKKQSQSQDVLVLEEAKKKSEKTTKDYPKSWLIKSLFKTFHVVILKSFILKLIHDLLVFLNPQLLKLLIGFVKSSNSYVWFGYICAILMFAVTLIQSFCLQSYFQHCFVLGMCVRTTVMSSIYKKALTLSNLARKQYTIGETVNLMSVDSQKLMDATNYMQLVWSSVIQITLSIFFLWRELGPSILAGVGVMVLLIPVNGVLATKIRNIQVQNMKNKDKRLKIMNEILSGIKILKYFAWEPSFQEQVQGIRKKELKNLLRFGQLQSLLIFILQITPILVSVVTFSVYVLVDSANVLNAEKAFTSITLFNILRFPLSMLPMVTSSILQASVSVDRLERYLGGDDLDTSAIRRVSNFDKAVKFSEASFTWDPDLEATIQDVNLDIKPGQLVAVVGTVGSGKSSLVSAMLGEMENVHGHITIQGSTAYVPQQSWIQNGTIKDNILFGSEYNEKKYQQVLKACALLPDLEILPGGDMAEIGEKGINLSGGQKQRVSLARAAYQDADIYILDDPLSAVDAHVGKHIFNKVVGPNGLLAGKTRIFVTHGIHFLPQVDEIVVLGKGTILEKGSYRDLLDKKGVFARNWKTFMKHSGPEGEATVNNDSEAEDDDDGLIPTMEEIPEDAASLAMRRENSLRRTLSRSSRSSSRRGKSLKNSLKIKNVNVLKEKEKEVEGQKLIKKEFVETGKVKFSIYLKYLQAVGWWSILFIILFYGLNNVAFIGSNLWLSAWTSDSDNLNGTNNSSSHRDMRIGVFGALGLAQGICLLISTLWSIYACRNASKALHGQLLTNILRAPMRFFDTTPTGRIVNRFSGDISTVDDLLPQTLRSWMMCFFGIAGTLVMICMATPVFAIIIIPLSILYISVQVFYVATSRQLRRLDSVTKSPIYSHFSETVTGLPIIRAFEHQQRFLAWNEKQIDINQKCVFSWITSNRWLAIRLELVGNLVVFCSALLLVIYRKTLTGDVVGFVLSNALNITQTLNWLVRMTSEAETNIVAVERISEYINVENEAPWVTDKRPPADWPRHGEIQFNNYQVRYRPELDLVLKGITCNIKSGEKVGVVGRTGAGKSSLTNCLFRILESAGGQIIIDGIDVASIGLHDLRERLTIIPQDPILFSGSLRMNLDPFNKYSDEEVWRALELAHLRSFVSGLQLGLLSEVTEGGDNLSIGQRQLLCLGRAVLRKSKILVLDEATAAVDLETDSLIQTTIRKEFSQCTVITIAHRLHTIMDSDKIMVLDNGKIVEYGSPEELLSNRGSFYLMAKEAGIENVNHTEL
Km [3]: 126 µM
